Experimental data published in EP4691468A1, “PHARMACEUTICAL COMPOSITION FOR TREATING INFLAMMATORY BOWEL DISEASE” (EA Pharma Co., Ltd., priority 2023, dated 2024).

Assay: Phase 1 single-dose administration study: plasma concentration of Compound (2) by LC/MS/MS
Conditions: for Average Plasma Concentrations of Compound (2) after Single-Dose Administration: oral; for Judgment Trough Value / Plasma Concentration Trough Value: Measured Value, Single, Once
Procedure: A phase 1 clinical trial was conducted to evaluate the safety, tolerability, and pharmacokinetics of Compound (1) when orally administered to healthy adult males.
This clinical trial was a single-center, randomized, double-blind, placebo-controlled, single and multiple ascending dose study with the primary objective of evaluating the safety and tolerability of Compound (1) when orally administered to healthy adult males.
The subjects in each cohort consisted of 8 people, of which 6 were assigned to Compound (1) and 2 were assigned to placebo, and they were administered the drug.
The plasma concentration of Compound (2) was measured using a validated measurement method. Specifically, plasma was separated from collected blood and processed, and then the plasma concentration was measured by an LC/MS/MS apparatus.
Compound (1) was orally administered once to 6 healthy adult males per dose and dosage form at doses of 6, 20, 100, 200, and 400 mg in the form of hard capsules (CAP), liquid self-emulsifying drug delivery system (L-SEDDS), or soft capsule self-emulsifying drug delivery system (C-SEDDS).

Cc1cc(=O)n(-c2ccc(C[C@H](NC(=O)c3cc(F)c(NS(=O)(=O)c4ccc(NC(=O)C(C)(C)C)cc4)cc3F)C(=O)O)cn2)c(=O)n1C [Compound (2)]
Average Plasma Concentrations of Compound (2) after Single-Dose Administration (Compound (1) 200 mg C-SEDDS, Time 7 h): 3.46 ng/mL
Average Plasma Concentrations of Compound (2) after Single-Dose Administration (Compound (1) 200 mg C-SEDDS, Time 8 h): 3.33 ng/mL
Average Plasma Concentrations of Compound (2) after Single-Dose Administration (Compound (1) 200 mg C-SEDDS, Time 12 h): 2.48 ng/mL
Average Plasma Concentrations of Compound (2) after Single-Dose Administration (Compound (1) 200 mg C-SEDDS, Time 15 h): 2.14 ng/mL
Average Plasma Concentrations of Compound (2) after Single-Dose Administration (Compound (1) 200 mg C-SEDDS, Time 21 h): 1.85 ng/mL
Average Plasma Concentrations of Compound (2) after Single-Dose Administration (Compound (1) 200 mg C-SEDDS, Time 24 h): 1.69 ng/mL
Average Plasma Concentrations of Compound (2) after Single-Dose Administration (Compound (1) 200 mg L-SEDDS, Time 0.5 h): 4.28 ng/mL
Average Plasma Concentrations of Compound (2) after Single-Dose Administration (Compound (1) 200 mg L-SEDDS, Time 1 h): 11.5 ng/mL
Average Plasma Concentrations of Compound (2) after Single-Dose Administration (Compound (1) 200 mg L-SEDDS, Time 1.5 h): 14.2 ng/mL
Average Plasma Concentrations of Compound (2) after Single-Dose Administration (Compound (1) 200 mg L-SEDDS, Time 2 h): 13.5 ng/mL
Average Plasma Concentrations of Compound (2) after Single-Dose Administration (Compound (1) 200 mg L-SEDDS, Time 2.5 h): 13.0 ng/mL
Average Plasma Concentrations of Compound (2) after Single-Dose Administration (Compound (1) 200 mg L-SEDDS, Time 3 h): 10.9 ng/mL
Average Plasma Concentrations of Compound (2) after Single-Dose Administration (Compound (1) 200 mg L-SEDDS, Time 4 h): 9.50 ng/mL
Average Plasma Concentrations of Compound (2) after Single-Dose Administration (Compound (1) 200 mg L-SEDDS, Time 5 h): 6.46 ng/mL
Average Plasma Concentrations of Compound (2) after Single-Dose Administration (Compound (1) 200 mg L-SEDDS, Time 6 h): 3.97 ng/mL
Average Plasma Concentrations of Compound (2) after Single-Dose Administration (Compound (1) 200 mg L-SEDDS, Time 7 h): 2.89 ng/mL
Average Plasma Concentrations of Compound (2) after Single-Dose Administration (Compound (1) 200 mg L-SEDDS, Time 8 h): 2.54 ng/mL
Average Plasma Concentrations of Compound (2) after Single-Dose Administration (Compound (1) 200 mg L-SEDDS, Time 12 h): 2.07 ng/mL
Average Plasma Concentrations of Compound (2) after Single-Dose Administration (Compound (1) 200 mg L-SEDDS, Time 15 h): 2.00 ng/mL
Average Plasma Concentrations of Compound (2) after Single-Dose Administration (Compound (1) 200 mg L-SEDDS, Time 21 h): 2.11 ng/mL
Average Plasma Concentrations of Compound (2) after Single-Dose Administration (Compound (1) 200 mg L-SEDDS, Time 24 h): 2.25 ng/mL
Average Plasma Concentrations of Compound (2) after Single-Dose Administration (Compound (1) 400 mg L-SEDDS, Time 0.5 h): 8.84 ng/mL
Average Plasma Concentrations of Compound (2) after Single-Dose Administration (Compound (1) 400 mg L-SEDDS, Time 1 h): 36.7 ng/mL
Average Plasma Concentrations of Compound (2) after Single-Dose Administration (Compound (1) 400 mg L-SEDDS, Time 1.5 h): 45.6 ng/mL
Average Plasma Concentrations of Compound (2) after Single-Dose Administration (Compound (1) 400 mg L-SEDDS, Time 2 h): 45.0 ng/mL
Average Plasma Concentrations of Compound (2) after Single-Dose Administration (Compound (1) 400 mg L-SEDDS, Time 2.5 h): 40.1 ng/mL
Average Plasma Concentrations of Compound (2) after Single-Dose Administration (Compound (1) 400 mg L-SEDDS, Time 3 h): 31.8 ng/mL
Average Plasma Concentrations of Compound (2) after Single-Dose Administration (Compound (1) 400 mg L-SEDDS, Time 4 h): 22.6 ng/mL
Average Plasma Concentrations of Compound (2) after Single-Dose Administration (Compound (1) 400 mg L-SEDDS, Time 5 h): 14.3 ng/mL
Average Plasma Concentrations of Compound (2) after Single-Dose Administration (Compound (1) 400 mg L-SEDDS, Time 6 h): 8.41 ng/mL
Average Plasma Concentrations of Compound (2) after Single-Dose Administration (Compound (1) 400 mg L-SEDDS, Time 7 h): 6.54 ng/mL
Average Plasma Concentrations of Compound (2) after Single-Dose Administration (Compound (1) 400 mg L-SEDDS, Time 8 h): 4.76 ng/mL
Average Plasma Concentrations of Compound (2) after Single-Dose Administration (Compound (1) 400 mg L-SEDDS, Time 12 h): 4.34 ng/mL
Average Plasma Concentrations of Compound (2) after Single-Dose Administration (Compound (1) 400 mg L-SEDDS, Time 15 h): 3.90 ng/mL
Average Plasma Concentrations of Compound (2) after Single-Dose Administration (Compound (1) 400 mg L-SEDDS, Time 21 h): 3.98 ng/mL
Average Plasma Concentrations of Compound (2) after Single-Dose Administration (Compound (1) 400 mg L-SEDDS, Time 24 h): 3.79 ng/mL
Judgment Trough Value (6/CAP): C (less than IC50 (1.9 ng/mL))
Judgment Trough Value (20/CAP): C (less than IC50 (1.9 ng/mL))
Plasma Concentration Trough Value (20/CAP): 0.25 ng/mL
Judgment Trough Value (100/CAP): C (less than IC50 (1.9 ng/mL))
Plasma Concentration Trough Value (100/CAP): 1.03 ng/mL
Judgment Trough Value (200/C-SEDDS): C (less than IC50 (1.9 ng/mL))
Plasma Concentration Trough Value (200/C-SEDDS): 1.69 ng/mL
Judgment Trough Value (200/L-SEDDS): B (IC50 (1.9 ng/mL) or higher and less than IC90 (6.9 ng/mL))
Plasma Concentration Trough Value (200/L-SEDDS): 2.25 ng/mL
Judgment Trough Value (400/L-SEDDS): B (IC50 (1.9 ng/mL) or higher and less than IC90 (6.9 ng/mL))
Plasma Concentration Trough Value (400/L-SEDDS): 3.79 ng/mL
trough value resulting from C-SEDDS relative to the trough value resulting from L-SEDDS (single-dose administration, 200 mg): about 75%
